The source of these data is patent publication US20250345350A1, “TREATING PAIN ASSOCIATED WITH CENTRAL SENSITIZATION” (Medicon Pharmaceuticals, Inc., priority 2022, published 2025).

“And” between values parts separate entries of the source, which are not always exact repeats. Equal entries are not always repeated.

The test system of data set [1] is paclitaxel-induced pain associated with central sensitization in C57BL/6J mice. Put plainly: Mechanical allodynia (von Frey), paclitaxel-induced pain, topical PS 8% (Example 2). The class given is in vivo, mouse. The text has this: (§1) Food and water were available ad libitum.
(§2) Paw withdrawn, licking or shaking were considered positive responses.

The test system of data set [2] is paclitaxel-induced central sensitization in C57/BL/6J mice. The data set is described as follows: Cold allodynia (acetone test), paclitaxel model (Example 3). The class given is in vivo, mouse. Particulars: after paclitaxel treatment. The procedure:
To determine the outcome of treatment, assessment of mechanical allodynia was performed. […] Both methods of assessing allodynia are described in Toma W, et al. Neuropharmacology 2017; 117:305-15. Mechanical and cold allodynia are determined at least one day apart in the same animal.
The acetone test was used. Briefly, acetone was applied onto the plantar surface of each hind paw. The time each mouse spent licking, lifting, and/or shaking the hind paw recorded over 60 seconds was the score for cold allodynia. Measurements were performed on day-8 (before the first paclitaxel injection), the day of starting treatment (day 0) and then on day 15.

In data set [3] the test system is paclitaxel-induced central sensitization in C57/BL mice. Put plainly: Paw withdrawal threshold (von Frey), paclitaxel model, topical PS (Example 1). Particulars: day 10, about 30 min after last application; PS 8% hydrogel topically to both hind paws 3 times a day for 10 days.
Description: The paclitaxel was administered into all study groups once a day for 3 days.
The first doses were administered 2 days after the last administration of paclitaxel.
The study groups were as follows: • 1. Group 1: paclitaxel only (n=9) • 2. Group 2: paclitaxel plus vehicle (n=10) • 3.
In order to determine the outcome of the treatment, pain threshold responses were measured using the well-established method of von Frey filaments. […] The results of the PWT test are expressed as force applied (gm). […] The data is expressed as percent change from the respective baseline value.
For data set [4], the system named is paclitaxel-induced central sensitization in C57/BL/6J mice.
Description: Regarding the treatment with lidocaine: 5% lidocaine cream (a positive control) was applied once to both hind paws of the mice 30 minutes before measurement of PWT.
Briefly, for mechanical allodynia, pain threshold responses were measured using the well-established method of von Frey filaments in line with that performed in the earlier Examples. The PWT test was performed on day-8 (before the first dose of paclitaxel), the day of starting treatment (day 0, at which central sensitization was fully established) and day 14 (treatment continued until day 15). The mechanical threshold, expressed as g, indicates the force of the von Frey filament to which the animal reacted.
Data set [5] deals with paclitaxel-induced CIPN in C57BL/6J mice. The data set is described as follows: PWT (von Frey), mouse model of CIPN, oral administration (Example 5). Particulars: day 7; oral gavage three times a day for 7 days, PS 50 mg/kg, sulindac 33 mg/kg. The data set is classed as in vivo. The text has this:
CIPN was induced in mice with chemotherapeutic agents using established protocols (Carozzi et al, 2010; Currie et al, 2019; Eldridge et al, 2020). […] This dosing regimen of paclitaxel produces pain associated with CIPN with time courses that are similar to those of pain after paclitaxel administration in cancer patients.
Group 1: naive mice (i.e. no paclitaxel, n=8) • 2. Group 2: paclitaxel only (n=8) • 3. Group 3: paclitaxel plus vehicle (n=8) • 4. […] Group 5: paclitaxel plus sulindac (n=8)
The PWT test was performed on day 7.

The subject of data set [6] is NTG-induced migraine in mice. Put plainly: PWT (von Frey), NTG-induced migraine mouse model, intraperitoneal clinical compounds (Example 15). Particulars: 30 min after single i.p. dose given 30 min after NTG; topiramate 30 mg/kg, sumatriptan 600 μg/kg, propranolol 10 mg/kg, gabapentin 30 mg/kg.
Description: In line with the earlier Examples, migraine was induced using 0.4 mg of NTG administered sublingually in the form of a finely crushed 0.4 mg NTG tablet (Greenstone Brand).
A single intraperitoneal dose of topiramate (30 mg/kg), sumatriptan (600 μg/kg), propranolol (10 mg/kg), gabapentin (30 mg/kg) or vehicle was administered 30 min after the induction of migraine, at the indicated doses.
Group 1: baseline (i.e, no NTG treatment) • 2. Group 2: vehicle • 3. Group 3: topimarate • 4. Group 4: sumatriptan • 5. Group 5: propanolol • 6. Group 6: gabapentin
Mechanical allodynia was determined using the method of von Frey filaments in line with that performed in the earlier Examples. The PWT test was performed 30 minutes after compound or vehicle control administration. The mechanical threshold, expressed as g, indicates the force of the von Frey filament to which the animal reacted.
Data set [7] has as its system STZ-induced central sensitization in Sprague-Dawley rats. The data set is described as follows: PWT (von Frey), streptozotocin rat model of central sensitization (Example 4). The class given is in vivo. On the procedure:
Sprague-Dawley rats were fasted for 4-6 hours before being injected intraperitoneally with 45 mg/kg STZ. This was performed for all experimental groups, except the naive group. In order to prevent hypoglycaemic death, rats received 10% sucrose water as the sole water source for the first 48 hours after injection. In order to ensure only those rats considered diabetic (i.e., having non-fasting plasma glucose levels of >250 mg/dL) were included in the study, blood glucose was measured at 72 hours after the STZ injection.
Four weeks after STZ injection, the rats were randomised into treatment groups. This delay between STZ injection and treatment allows the establishment of chronic pain (allodynia) associated with central sensitization. […] 5% lidocaine cream (positive control) was applied only once to both hind paws of the rats 30 minutes before measurement of PWT.
The rats were split into 8 study groups, with those in the experimental groups (1-4) having an average body weight of about 225 g, and those in the control groups (5-8) having an average body weight of about 335 g, as follows: • 1. Group 1: naive rats (n=5) • 2. Group 2: STZ only (n=6) • 3. Group 3: STZ plus vehicle (n=6) • 4. […] Group 5: STZ plus oral vehicle (n=8) • 6. Group 6: STZ plus 0.7% sulindac hydrogel (n=7) • 7. Group 7: STZ plus 5% lidocaine cream (n=8) • 8.

In data set [8] the test system is oxaliplatin-induced pain associated with central sensitization in C57BL/6J mice. The data set is described as follows: Mechanical allodynia (von Frey), oxaliplatin-induced pain, topical PS 8% (Example 2). The data set is classed as in vivo, mouse. Particulars: day 0, in the two study groups respectively; cumulative 30 mg/kg i.p.
Source text: as §1
(§3) Protocol for the Treatment of Established Pain Associated with Central Sensitization with PS
as §2

The subject of data set [9] is chronic constriction injury-induced peripheral neuropathy in C57BL/6J mice. Put plainly: PWT (von Frey), chronic constriction injury model of PTPN, topical (Example 7). Particulars: day 14, PS 5% gel or sulindac 0.7% gel on left paw three times a day for 14 days, pregabalin once by oral gavage 1 h before.
Description: Group 1: ligation only (i.e, surgical control with no treatment, n=5-7) • 2. Group 2: vehicle control (n=5-7) • 3. […] Group 4: 0.7% sulindac (n=5-7) • 5.
Briefly, for determining mechanical allodynia, pain threshold responses were measured using the well-established method of von Frey filaments in line with that performed in the earlier Examples. The PWT test was performed on day 14. The mechanical threshold, expressed as g, indicates the force of the von Frey filament to which the animal reacted.
The test system of data set [10] is NTG-induced chronic migraine in mice. Put plainly: PWT (von Frey), NTG-induced chronic migraine model, intraperitoneal topiramate and sumatriptan (Example 17). The data set is classed as in vivo, mouse. On the procedure:
The NTG-induced chronic migraine model was used as described previously.
sumatriptan (600 μg/kg), or vehicle was administered.
. Group 1: NTG+vehicle (n=8) • 2. Group 2: NTG+topiramate (n=8) • 3. Group 3: NTG+sumatriptan (n=8)

For data set [11], the system named is vincristine-induced pain associated with central sensitization in C57BL/6J mice. Put plainly: Mechanical allodynia (von Frey), vincristine-induced pain, topical PS 8% (Example 2). The data set is classed as in vivo, mouse.
Source text: as §1, §3, §2

Data set [12] concerns NTG-induced migraine in C57BL/6J mice. The data set is described as follows: PWT (von Frey), NTG-induced migraine mouse model, topical (Example 13). Particulars: confirmation of NTG model.
Description: Specifically, instead of the intraperitoneal injection of NTG, a finely crushed 0.4 mg NTG tablet (Greenstone Brand) was administered sublingually. As a control, a Practi-Nitroglycerin Sublingual 0.4 mg Simulated Medication tablet was used.
For determining mechanical allodynia, pain threshold responses were measured using the well-established method of von Frey filaments in line with that performed in the earlier Examples.
The PWT test, assessing mechanical allodynia, was performed 30 minutes after treatment. The mechanical threshold, expressed as g, indicates the force of the von Frey filament to which the animal reacted.
For data set [13], the system named is NTG-induced chronic migraine in mice. Put plainly: PWT (von Frey), NTG-induced chronic migraine model, oral (Example 16).
Data set [14] is described as follows: PS and metabolites in proximal and distal half of the sciatic nerve (Example 25). The class given is in vivo, mouse. Particulars: mouse, in vivo. The procedure: In a separate experiment we studied 8 mice with paclitaxel-induced PN treated with PS 8% ointment 3×/d for 2 wks. Mice were euthanized as above 30 minutes after the last dose of PS. From these mice we harvested both sciatic nerves dividing each into proximal and distal halves, and combined the corresponding halves of every two animals for assay of drug levels.

The mark [15] stands for this setting: Baseline, prior to NTG administration.
Where [16] appears, read: Post-compound administration, 30 min after single i.p. dose, topiramate 30 mg/kg, sumatriptan 600 μg/kg.

As for `CC(=O)O[C@H]1C(=O)[C@@]2(C)[C@H]([C@H](OC(=O)c3ccccc3)[C@]3(O)C[C@H](OC(=O)[C@H](O)[C@@H](NC(=O)c4ccccc4)c4ccccc4)C(C)=C1C3(C)C)[C@]1(OC(C)=O)CO[C@@H]1C[C@@H]2O` [Paclitaxel, paclitaxel, reference compound], the “mechanical allodynia score, mean±SEM” value in data set [1] (day 0 (initiation of treatment), paclitaxel-induced pain) amounted to 0.78 ± 0.08 g; in data set [1] (day 16, PS 8% ointment 3x/day to hind paws), 0.57 ± 0.05 g; in data set [4] (day 0, after paclitaxel, central sensitization fully established) it was 0.55 ± 0.05 g. For the same compound, the “reduction of mechanical allodynia scores by paclitaxel” value in data set [1] (paclitaxel administered over 12 days, cumulative 32 mg/kg i.p.) is roughly 85%. Besides, the “cold allodynia score (acetone test)” value in data set [2] is 7.1 ± 0.4 s. Besides, in data set [3], the “PWT, % baseline Mean ± SEM” value is 86.75 ± 5.42 % baseline. Also, in data set [5], the “PWT, g Mean ± SEM” value amounted to 0.53 ± 0.03 g.

For `NCC1(CC(=O)O)CCCCC1` [Gabapentin, gabapentin], the “PWT, g Mean ± SEM” value in data set [6] stood at 1.44 ± 0.25 g.

Consider `CCN(CC)CC(=O)Nc1c(C)cccc1C` [lidocaine], for which, in data set [7] (0.7% sulindac hydrogel 3 times a day for 1 week, 5% lidocaine cream once 30 min before, pregabalin 10 mg/kg orally once 1 h before), the “PWT, gm Mean ± SEM” value is on record as 26.0 ± 1.8 gm. The “PWT, g Mean ± SEM” value in [4] (day 14, PS hydrogel 5% or 0.7% sulindac 3 times a day, 5% lidocaine cream once 30 min before, pregabalin 10 mg/kg orally once 1 h before) came out at 1.48 ± 0.12 g.

On to `O=C1[O][Pt]2([NH][C@@H]3CCCC[C@H]3[NH]2)[O]C1=O` [oxaliplatin, reference compound], for which, in data set [8], the “reduction of allodynia score during oxaliplatin administration” value was 65% and 56%.

Turning to `CN(N=O)C(=O)N[C@H]1C(O)O[C@H](CO)[C@@H](O)[C@@H]1O` (mixture of isomers) [STZ, streptozotocin], the “PWT, gm Mean ± SEM” value in data set [7] (week 7, PS 8% hydrogel to both hind paws 3 times a day for 3 weeks from week 4 after STZ) came to 15.7 ± 0.84 gm.

For `CC(C)C[C@H](CN)CC(=O)O` [pregabalin, reference compound], the “PWT, g Mean ± SEM” value in [9] and in [9] (listed as Pregabalin) was 1.1 ± 0.10 g throughout.

In the case of `CNS(=O)(=O)Cc1ccc2[nH]cc(CCN(C)C)c2c1` [Sumatriptan, sumatriptan], the “PWT, g Mean ± SEM” value turned out to be 1.90 ± 0.06 g in data set [10] (setting [15]), 0.57 ± 0.02 g in data set [10] (Day 12 (pre-treatment)), 1.33 ± 0.17 g in [10] (setting [16]) and 1.34 ± 0.12 g in data set [6].

As for `CC1(C)O[C@@H]2[C@@H](CO[C@@]3(COS(N)(=O)=O)OC(C)(C)O[C@@H]23)O1` [Topiramate, topiramate], the “PWT, g Mean ± SEM” value in data set [10] (setting [15]) is listed as 2.40 ± 0.24 g; in [10] (Day 12 (pre-treatment)), 0.60 ± 0.00 g; in data set [10] (setting [16]), 1.76 ± 0.11 g; in data set [6], 1.40 ± 0.14 g.

Consider `CC(C)NCC(O)COc1cccc2ccccc12` (stereo not drawn) [Propanolol, propranolol], for which the “PWT, g Mean ± SEM” value in data set [6] is recorded as 1.37 ± 0.14 g.

In the case of `CC[C@]1(O)C[C@H]2CN(CCc3c([nH]c4ccccc34)[C@@](C(=O)OC)(c3cc4c(cc3OC)N(C=O)[C@H]3[C@@](O)(C(=O)OC)[C@H](OC(C)=O)[C@]5(CC)C=CCN6CC[C@]43[C@@H]65)C2)C1` [vincristine], the figures for the “mechanical allodynia score, mean±SEM” value in data set [11] (day 0) and in data set [11] (day 16) were 0.7 ± 0.07 g and 0.8 ± 0.09 g, respectively. Besides, the “reduction of mechanical allodynia score by vincristine” value in data set [11] (day 0 vs day -7, three groups, cumulative 3 mg/kg i.p.) is 61%-65%.

On to `O=[N+]([O-])OCC(CO[N+](=O)[O-])O[N+](=O)[O-]` [NTG, nitroglycerin], for which the “PWT, g 30 min Mean ± SEM” value in data set [12] (30 min after sublingual NTG 0.4 mg) worked out at 0.70 ± 0.12 g. Besides, in data set [12] (60 min after sublingual NTG 0.4 mg), the “PWT, g 60 min Mean ± SEM” value is reported as 0.51 ± 0.05 g. Further, the “PWT, g Mean ± SEM” value stood at 1.95 ± 0.18 g in [13] (setting [15]) and 0.66 ± 0.11 g in data set [13] (Day 11, orally once a day for 11 days concurrent with NTG, PS 50 mg/kg, sulindac 33 mg/kg).

In the case of `CC1=C(CC(=O)O)c2cc(F)ccc2/C1=C\c1ccc(S(C)(=O)=O)cc1` [Sulindac sulfone, sulindac sulfone], in [14], the “Distal half of sciatic nerve, mean ± SEM” value came out at 0.9 ± 0.2 µM; the “Fold difference (distal vs proximal)” value is given as 4.5 fold; the “Proximal half of sciatic nerve, μM, mean ± SEM” value came out at 0.2 ± 0.08 µM.
